What all share (settings): 72 h
One assay has as its system BT-474. The procedure, abridged:
(§1)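 EC50 was fitted from dose-response curves and censored at the highest concentration tested. To build those curves, breast cancer cell lines (20 µl suspension) were seeded into 384-well plates containing compound at 5 concentrations in 10-fold steps over a compound-specific 10,000-fold range and incubated for 72 h. Readouts were CellTox Green fluorescence (485/520 nm) for cell death and then CellTiter-Glo luminescence for viability, with each plate normalised to 0.1 % DMSO and a positive kill control.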

For another assay, the system named is HDQ-P1. The essentials:
as §1

Another assay deals with MDA-MB-468. The essentials:
as §1

For the molecule `COc1cc(F)c(F)c(Nc2ccc(I)cc2F)c1NS(=O)(=O)C1(C[C@H](O)CO)CC1` [Refametinib], the “EC50, CellTiter-Glo” value is 644 nM in the assay with BT-474, 119 nM in the assay on HDQ-P1 and 2240 nM with MDA-MB-468.
On the same counts, the results for `Cc1ccc([N+](=O)[O-])cc1S(=O)(=O)N(C)/N=C/c1cnc2ccc(Br)cn12` [PIK-75] are 26.1 nM, 32.5 nM and 27.4 nM.
Take `Nc1nc2[nH]cnc2c(=S)[nH]1` [Thioguanine]: the “EC50, CellTiter-Glo” value with BT-474 stood at 197 nM; in the assay on HDQ-P1, 2970 nM; in the assay on MDA-MB-468, 9670 nM.
For `C[C@]1(O)C[C@@H](c2nc(-c3ccc4ccc(-c5ccccc5)nc4c3)c3c(N)nccn32)C1` [Linsitinib], the “EC50, CellTiter-Glo” value worked out at 1090 nM in the assay with BT-474, 1010 nM in the assay on HDQ-P1 and 4140 nM in the assay on MDA-MB-468.
On the same counts, the results for `Cn1cnc2c(F)c(Nc3ccc(Br)cc3Cl)c(C(=O)NOCCO)cc21` [Selumetinib] are 361 nM, 44.8 nM and 5030 nM.

(Values after the supplement of paper PMC4862054.)
